The values below are quoted from earlier work in patent publication US20150216918A1, “FERMENTED SOY NUTRITIONAL SUPPLEMENTS INCLUDING MUSHROOM COMPONENTS” (priority 2010, published 2015).

For the data set, the system named is tumor cells.

SMILES strings stand for the structures.

As for `CC(C)CCCCCCCCCCCC(=O)O` [MDT-13, 13-methyl-tetradecanoic acid], the “induction of apoptosis in tumor cells” value is “induce apoptosis”.
